Results: patent publication US10071103B2, “Treatments for resistant acne” (VYOME BIOSCIENCES PVT. LTD., priority 2014, dated 2018)
≈ marks a conversion by molar mass, not a printed value.

Columns and labels:
IL-8 = assay: P. acnes-induced IL-8 release in THP-1 cells (ELISA); assay type: cell-based; details: THP-1 cells
Procedure: (§1) Method: Preparation of Stimulant for Inflammation: P. acnes culture suspension was prepared in PBS and the cell number in the suspension was adjusted to approximately 5×10^8 CFU/ml by measuring the cell density using a Densimat. The bacterial suspension was then heat killed at 80° C. for 30 min and stored at −80° C. until further use.
(§2) Cells were seeded in a 96-well format (2×10^5 THP-1 cells per well) in media containing 10% FBS. The cells were stimulated to induce inflammatory cytokines using 3 McFarland equivalent heat-killed P. acnes. Cells in control wells were treated with PBS. One hour after induction with P. acnes, test agents were added to the induced cells at appropriate concentrations to be tested (compound 91 at 25 μg/ml). The plates were incubated at 37° C. for 24 hours. After 24 h, the plates were centrifuged to pellet the cells and the supernatants were collected. The cell culture supernatants thus obtained were analyzed for levels of cytokines (IL-1α, IL-1β, IL-6 and IL-8) by ELISA using R&D Systems kits for individual cytokines following the manufacturer's instructions.
(§3) Preparation of stimulant for inflammation: P. acnes culture suspension was prepared in PBS and the cell number in the suspension was adjusted to approximately 5×10^8 CFU/ml by measuring the cell density using a Densimat. The bacterial suspension was then heat killed at 80° C. for 30 min and stored at −80° C. until further use.
(§4) Cells were seeded in a 96-well format (2×10^5 THP-1 cells per well) in media containing 10% FBS. The cells were stimulated to induce inflammatory cytokines using 3 McFarland equivalent heat-killed P. acnes. Cells in control wells were treated with PBS. One hour after induction with P. acnes, test agents were added to the induced cells at appropriate concentrations (Besifloxacin at 10 and 30 μg/ml; Adapalene at 0.04 and 0.4 μg/ml). The plates were incubated at 37° C. for 24 hours. After 24 h, the plates were centrifuged to pellet the cells and the supernatants were collected. The cell culture supernatants thus obtained were analyzed for cytokine levels (IL-6 and IL-8) by ELISA using R&D Systems kits for individual cytokines following the manufacturer's instructions.

P. acnes CCARM 9010 [1] = assay: In vitro time kill kinetics, P. acnes CCARM 9010; assay type: cell-based, Propionibacterium acnes; details: 2.5 μg/ml
Procedure: P. acnes (CCARM 9010) Aqueous Suspension (0.5 McFarland standard equivalent) was centrifuged at 2000 rpm for 20 min, pellet was resuspended in Brain Heart Infusion (BHI) broth. Resultant P. acnes suspension was kept for overnight (16 h) incubation in anaerobic box at 37° C. Stock solution of besifloxacin.HCl (1 mg/ml) was prepared in dimethyl sulphoxide (DMSO) which was further diluted with BHI broth to achieve working stock of besifloxacin.HCl (25 μg/ml). Then reaction mixture was prepared by adding 900 μl of P. acnes 0.5 McFarland standard culture (after 16 h incubation) to 100 μl of besifloxacin.HCl working stock solution (25 μg/ml), final besifloxacin.HCl concentration in reaction mixture was 2.5 μg/ml. Reaction mixture (1 ml) was incubated at 37° C. for 24 h in an anaerobic box in two sets—(1) tube with P. acnes with 2.5 μg/ml Besifloxacin.HCl and 2) broth control without besifloxacin.HCl. At predetermined time points (1 h, 6 h and 24 h), cells were collected and plated in duplicate after serial dilution in Brain Heart Infusion agar plate. Plates were allowed to grow for 3 days at 37° C. in anaerobic box. After incubation, plates were counted to determine colony forming units (CFU) and log reduction was calculated. In a similar experimental set-up, water was used as solvent instead of DMSO and effects of solvents on time kill kinetics were also studied.
2) Zone of Inhibition (ZOI): For ZOI test, BHA plates were spread with 100 μl of P. acnes suspension (0.5 McFarland standard equal). Test samples (drugs/formulations) were dissolved in water/solvent based on the solubility. Sterile disc (6 mm) were loaded with 10 μl of test samples (of various concentration of drug), and were placed above the plates containing P. acnes culture. Then, plates were incubated at 37° C. for 48 h, followed by their ZOI measurements. 3) Time Kill Kinetics (TK): For TK Test, P. acnes (CCARM 9010) aqueous suspension (0.5 McFarland standard equivalent) was centrifuged at 2000 rpm for 20 min, pellet was resuspended in brain heart infusion (BHI) broth. Resultant P. acnes suspension was kept for overnight (16 h) incubation in anaerobic box at 37° C. Stock solution of besifloxacin.HCl (1 mg/ml) was prepared in dimethyl sulphoxide (DMSO) which was further diluted with BHI broth to obtain working stock of besifloxacin.HCl (25 μg/ml). Then reaction mixture was prepared by adding 900 μl of P. acnes 0.5 McFarland standard equal culture (after 16 h of incubation) and 100 μl of besifloxacin.HCl working stock (25 μg/ml), to obtain final besifloxacin.HCl concentration in reaction mixture, 2.5 μg/ml. Reaction mixture (1 ml) was incubated at 37° C. in an anaerobic box—(1) tube with P. acnes and 2.5 μg/ml Besifloxacin.HCl and 2) broth control without besifloxacin.HCl for 24 h. At predetermined time points (0 h, 2 h, 8 h and 24 h), cells were collected and plated in duplicate after serial dilution in brain heart infusion agar plate. Plates were allowed to grow for 3 days at 37° C. in anaerobic box. After incubation, plates were counted to determine colony forming units (CFU) and log reduction was calculated.
0.5 McFarland standard equal P. acnes (CCARM 9010) culture was prepared in sterile water. Prepared culture was centrifuged at 2000 rpm for 20 min then supernatant was removed and similar amount of brain heart infusion (BHI) broth was added. P. acnes culture in BHI broth was kept for overnight (16 h.) incubation in anaerobic box at 37° C. Besifloxacin powder was diluted in water and DMSO to prepare 1 mg/ml stock and then both were further diluted in BHI broth to make final concentration of 100 μg/ml. 900 μl of P. acnes 0.5 McFarland culture (after 16 h. incubation) and 100 μl of diluted Besifloxacin (100 μg/ml) were mixed to obtain final Besifloxacin concentration 10 μg/ml in reaction mixture. Total reaction mixture (1 ml) was incubated at 37° C. in an anaerobic box.

IL-6 = assay: P. acnes-induced IL-6 release in THP-1 cells (ELISA); assay type: cell-based; details: THP-1 cells
Procedure: as §1, §2, §3, §4

P. acnes CCARM 9010 [2] = assay: MIC by micro broth dilution (Alamar blue), clindamycin-resistant/nonresponsive P. acnes; assay type: cell-based, Propionibacterium acnes; details: for Activity / bacterial killing, dose response curve (in words): clindamycin-nonresponsive CCARM 9010
Procedure: (§5) The plates were incubated at 37° C. for 48 h under anaerobic condition for P. acnes and 37° C. for 24 h for S. aureus The plates were read under Bio-Rad plate reader at 595 nm for optical density to generate the dose-response curves. The MIC of the test compound was recorded by addition of Alamar blue dye.
(§6) P. acnes (MTCC 3297, MTCC 1951& CCARM 9010) are cultured in Brain Heart Infusion (BHI) Broth at 37° C. for 48-72 h under anaerobic condition. The test compounds/formulations are initially diluted with suitable solvent and further diluted with BHI broth to get the required concentrations. Samples (100 μl) of different concentrations (prepared by serial dilution) are added to 96-well plate. To the wells, 100 μl of P. acnes BHI broth culture is added [culture turbidity adjusted against 0.5 McFarland standard (approx 1.5×10^8), and further diluted 100-fold with sterile BHI broth]. In addition Growth Control and Sterility Control are created using 100 μl each of P. acnes BHI broth culture and plain BHI broth, respectively.
(§7) Plates are incubated at 37° C. for 48-72 hrs under anaerobic condition. The plate is read under Bio-Rad plate reader @ 595 nm for optical density to generate the dose-response curves. The MIC of the test compound is recorded by addition of Alamar blue dye.

P. acnes MTCC 1951 = assay: MIC by micro broth dilution (Alamar blue), clindamycin-susceptible P. acnes; assay type: cell-based, Propionibacterium acnes; details: for Activity / bacterial killing, dose response curve (in words): clindamycin-susceptible MTCC 1951
Procedure: as §5, §6, §7
BHI broth and BHI agar media were prepared as per the manufacturer's instruction and autoclaved at 121° C. for 15 minutes. […] For MIC determination testing, gels are dissolved in the solvent and further diluted with BHI broth. Then, 96 wells plate are filled with 100 μl of BHI broth containing drug with different concentration to get the final concentrations of 0.06, 0.13, 0.25, 0.5, 1 and 2 μg/ml in different lanes (lane 1 to lane 6). Remaining lanes of the 96 well plate are used as growth control and sterility control. Finally, P. acnes culture suspension (approx 1.5×10^6) is added in all the wells except sterility control wells and plate is incubated at 37° C. for 48-72 h under anaerobic condition. At the end of 72 h, Alamar blue solution (20 μl) is added into the wells and incubated at 37° C. for 2 h. Plate is visualized for bacterial inhibitions and MIC values of the tested samples are determined. […]

E. coli DNA gyrase = target: T1, E. coli DNA gyrase (Escherichia coli, UniProt P0AES4+P0AES6); assay: DNA gyrase super-coiling activity assay (Topogen kit, relaxed pHOT1 plasmid); assay type: biochemical; details: 1 μM and 2.5 μM
T1 construct: purchased Topogen Inc
Procedure: DNA super-coiling activity was assayed using DNA gyrase assay kit (Topogen Inc.) with relaxed pHOT1 E. coli plasmid DNA according to manufacturer's protocol. The standard reaction mixture (20 μl) contained 35 mM Tris-HCl (pH 7.5), 24 mM KCl, 4 mM MgCl2, 2 mM dithiothreitol, 1.8 mM spermidine, 1 mM ATP, 6.5% glycerol, 0.1 mg/ml bovine serum albumin (BSA), 10 μg/ml relaxed pHOT1 plasmid DNA and 1 U of DNA gyrase. The reaction mixture was incubated at 37° C. for 1 h in presence of selected compounds/fluoroquinolone at different concentrations. The reaction was terminated by addition of ⅕ volume of loading dye (4 μl) followed by proteinase K (50 μg/ml) and again incubated at 37° C. for half an hour. 20 μl chloroform/isoamyl alcohol (24:1) was added to each tube and vortexed briefly. Thereafter, the blue aqueous phase was separated out and analyzed by 1% agarose gel electrophoresis. The gel was stained by ethidium bromide for half an hour and destained with water for 15 mins. The gel was then visualized in a trans-illuminator and photographed.

S. aureus MTCC 6908 = assay: MIC by micro broth dilution, laboratory S. aureus strain; assay type: cell-based, Staphylococcus aureus; details: Staphylococcus aureus, MTCC6908; Table 6; read-out: MIC Susceptible S. aureus (6908) strain
Procedure: as §5
S. aureus MTCC 6908 were grown in Tryptone Soya Agar (TSA) at 37° C. for 24 hours. […] Plates were incubated at 37° C. for 24 hours. […] (2) Zone of Inhibition (ZOI): S. aureus MTCC 6908 were grown in Tryptone Soya Agar (TSA) at 37° C. for 24 hours. BHA plates are spreaded with 100 μl of 0.5 McFarland standard equal bacterial suspension. Test samples (drugs/formulations) were dissolved in water/solvent based on the solubility. Sterile disc (6 mm) were loaded with 10 μl of test samples (of various concentration of drug), and were placed above the spreaded plates. Plates were incubated at 37 C for 24 h, followed by ZOI measurement. (3) Time Kill Assay: 0.5 McFarland standard equal S. aureus culture was prepared in sterile water. Besifloxacin gels were diluted in Tryptone Soya broth (TSB) to get final concentration of 25 μg/ml. Then 900 μl of S. aureus 0.5 McFarland standard equal culture and 100 μl of diluted Besifloxacin gel was mixed to obtain final Besifloxacin concentration, 2.5 μl g/ml. Total reaction mixture (1 ml) was incubated at 37° C. in a tube rotator. After 2 and 6 h exposure, bacterial suspension was placed on Tryptone soya agar plate and incubated at 37° C. for 24 h.
Inoculated plates were incubated at 37° C. for 24 hours.

[3] = Cells + P. acnes + 10 μg/ml, 24 h, Table 70
[4] = Cells + P. acnes + 30 μg/ml, 24 h, Table 70
[5] = Cells + P. acnes + Besifloxacin•HCl 10 μg/ml, Table 71

T1 sequence (P0AES4 whole entry, one chain of several): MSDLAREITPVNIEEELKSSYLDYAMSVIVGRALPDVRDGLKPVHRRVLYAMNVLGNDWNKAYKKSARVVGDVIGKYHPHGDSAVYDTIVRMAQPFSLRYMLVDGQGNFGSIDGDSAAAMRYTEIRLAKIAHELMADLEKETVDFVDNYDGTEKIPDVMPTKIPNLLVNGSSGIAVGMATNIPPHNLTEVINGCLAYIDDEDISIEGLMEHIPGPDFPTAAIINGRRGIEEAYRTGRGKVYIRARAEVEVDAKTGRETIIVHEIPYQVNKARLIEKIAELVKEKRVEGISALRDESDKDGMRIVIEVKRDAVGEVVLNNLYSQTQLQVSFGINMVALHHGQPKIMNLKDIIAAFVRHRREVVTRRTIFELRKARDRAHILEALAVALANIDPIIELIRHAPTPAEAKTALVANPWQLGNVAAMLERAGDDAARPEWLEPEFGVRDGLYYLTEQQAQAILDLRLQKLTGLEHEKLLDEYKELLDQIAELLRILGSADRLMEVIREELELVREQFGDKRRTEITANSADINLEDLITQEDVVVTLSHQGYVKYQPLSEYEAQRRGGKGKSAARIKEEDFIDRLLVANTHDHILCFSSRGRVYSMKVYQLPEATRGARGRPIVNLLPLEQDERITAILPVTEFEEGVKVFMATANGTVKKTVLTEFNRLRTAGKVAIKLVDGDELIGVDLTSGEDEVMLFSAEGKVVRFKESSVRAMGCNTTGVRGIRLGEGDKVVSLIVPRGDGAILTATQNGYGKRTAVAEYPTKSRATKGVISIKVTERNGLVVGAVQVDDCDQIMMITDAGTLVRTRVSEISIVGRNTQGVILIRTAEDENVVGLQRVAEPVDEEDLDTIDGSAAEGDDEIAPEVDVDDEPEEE

## Cl.N[C@@H]1CCCCN(c2c(F)cc3c(=O)c(C(=O)O)cn(C4CC4)c3c2Cl)C1 [Besifloxacin•HCl]
IL-8; [3]
  Expression of Cytokines IL-8 (pg/ml) Mean: 2484.8 pg/mL
IL-8; [4]
  Expression of Cytokines IL-8 (pg/ml) Mean: 2301.6 pg/mL
IL-8; [5]
  Expression of Cytokines IL-8 (pg/ml) Mean: 2484.76 pg/mL
P. acnes CCARM 9010 [1]; stock in DMSO, 0 h
  Log 10 value of P. acnes: 7.0 ± 0.02
P. acnes CCARM 9010 [1]; stock in DMSO, 1 h
  Log 10 value of P. acnes: 6.7 ± 0.03
P. acnes CCARM 9010 [1]; stock in DMSO, 6 h
  Log 10 value of P. acnes: 6.0 ± 0.05
P. acnes CCARM 9010 [1]; stock in DMSO, 24 h
  Log 10 value of P. acnes: 5.2 ± 0.02
P. acnes CCARM 9010 [1]; stock in water, 0 h
  Log 10 value of P. acnes: 7.0 ± 0.02
P. acnes CCARM 9010 [1]; stock in water, 1 h
  Log 10 value of P. acnes: 6.7 ± 0.03
P. acnes CCARM 9010 [1]; stock in water, 6 h
  Log 10 value of P. acnes: 6.0 ± 0.02
P. acnes CCARM 9010 [1]; stock in water, 24 h
  Log 10 value of P. acnes: 5.2 ± 0.02
IL-6; [3]
  Expression of Cytokines IL-6 (pg/ml) Mean: 282.45 pg/mL
IL-6; [4]
  Expression of Cytokines IL-6 (pg/ml) Mean: 124.58 pg/mL
IL-6; [5]
  Expression of Cytokines IL-6 (pg/ml) Mean: 282.45 pg/mL

## Cc1ncc([N+](=O)[O-])n1CC(CCl)OC(=O)CN1CCN(c2cc3c(cc2F)c(=O)c(C(=O)O)c2n3C(C)S2)CC1 (stereo not shown) [Compound 90, 7-{4-[1-Chloromethyl-2-(2-methyl-5-nitro-imidazol-1-yl)-ethoxycarbonylmethyl]-piperazin-1-yl}-6-fluoro-1-methyl-4-oxo-4H-2-thia-8b-aza-cyclobuta[a]naphthalene-3-carboxylic acid]
P. acnes CCARM 9010 [2]; Cutibacterium acnes, CCARM9010, read-out: MIC Resistant P. acnes (9010) strain
  MIC: 0.9 µg/mL (≈ 1.48 µM)
P. acnes CCARM 9010 [2]
  Activity / bacterial killing, dose response curve (in words): shows activity
P. acnes CCARM 9010 [2]; listed as compound 90
  Activity / bacterial killing, dose response curve (in words): promising activity
P. acnes MTCC 1951; Cutibacterium acnes, MTCC1951, read-out: MIC Susceptible P. acnes (1951) strain
  MIC: 1.7 µg/mL (≈ 2.79 µM)
P. acnes MTCC 1951
  Activity / bacterial killing, dose response curve (in words): ineffective
P. acnes MTCC 1951; listed as compound 90
  Activity / bacterial killing, dose response curve (in words): not active
E. coli DNA gyrase
  Inhibition of super-coiling activity of DNA gyrase (in words): able to inhibit the super-coiling activity
S. aureus MTCC 6908
  MIC: 1 µg/mL (≈ 1.64 µM)
